# Values of other authors as cited in patent US20150050333A1, “PHARMACEUTICAL COMPOSITION COMPRISING OLMESARTAN MEDOXOMIL AND ROSUVASTATIN OR ITS SALT” (priority 2012, published 2015).
# System: CYP450
Metabolism of olmesartan medoxomil by CYP450 (after in vivo absorption),Portion of rosuvastatin that is metabolized (metabolized mainly by CYP 2C9 and CYP 2C19),Structure (SMILES)
not metabolized by CYP450,–,CCCc1nc(C(C)(C)O)c(C(=O)OCc2oc(=O)oc2C)n1Cc1ccc(-c2ccccc2-c2nnn[nH]2)cc1 [Olmesartan medoxomil]
–,10%,CC(C)c1nc(N(C)S(C)(=O)=O)nc(-c2ccc(F)cc2)c1/C=C/[C@@H](O)C[C@@H](O)CC(=O)O [rosuvastatin]
